The values below are quoted from earlier work in US9968537B2, “Anti-dandruff compositions and hair care formulations containing zinc pyrithione and quaternary ammonium salt” (JUBILANT LIFE SCIENCES LIMITED, priority 2013, dated 2018).

Molecules are shown by their SMILES.

For this data set the following is noted: background statement.

With `[O-][n+]1ccccc1S.[Zn]` [ZPTO, zinc pyridine-2-thiol-N-oxide], the solubility in water is 6-12 ppm.
